According to patent publication US20130017537A1, “METHOD OF IN-VITRO IMMUNOASSAY” (BASF Beauty Care Solutions France S.A.S., priority 2011, published 2013):
“And” between values parts separate entries of the source, which are not always exact repeats. Equal entries are not always repeated.

Assays:
[1] = tested on: type V collagen in the ECM; experiment: Influence of the lysis solution on the assay of type V collagen in the ECM; assay type: cell-based, human; conditions: for Ratio: Coll/DNA % (20 mM = 100.00): Table 3.3
Description: Thus, normal human fibroblasts obtained from abdominal biopsies were seeded in a 96-well plate and cultured in a defined medium (FGM) to 100% confluency.
After 48 hours of culture postconfluency at 37° C. under 0.5% CO2, the culture medium was collected.
The time of application of the lysis solution tested was 10 minutes at room temperature and with stirring.
The collagen V in the ECM was assayed directly on the ECM by using an anticollagen V antibody. A secondary antibody conjugated to europium was used with a detection reagent and the fluorescence was measured. (Delfia® kit—Perkin Elmer).
The experiment was repeated and the lysis solutions tested were as follows: • solution according to the invention NH4OH: 110 μl of an ammonium hydroxide solution at concentrations between 200 μM and 2 M. • Solution of monoethylamine at 20 Mm • Solution of diethylamine at 20 mM • Solution of triethylamine at 20 mM

collagen I = experiment: Immunohistochemical analysis of collagen I (confocal fluorescence); assay type: cell-based, human; conditions: 50 μM; 72 h
Description: After 72 h culture postconfluency, the culture medium was removed and immunolabelling was performed. The polyclonal anti-collagen I primary antibody was applied, then after removal of the medium the secondary antibody conjugated to a fluorochrome alexa 488 is added. The fluorescence was examined under the LSM700 confocal microscope.

[2] = tested on: intracellular procollagen; experiment: Procollagen ELISA (PIPc kit) on collected lysis medium; assay type: cell-based, human; conditions: for Procoll Mean (intracellular procollagen) / Ratio: Procoll/DNA Mean / Stat Mean (Procoll/DNA, control = 100.00): lysis medium
Description: The method described in example 1 was applied and the culture medium and lysis medium collected were analysed. On the collected lysis medium, a procollagen assay (PIPc kit, TAKARA) by ELISA is carried out for determining the amount of intracellular procollagen (Table 4.2). A DNA assay (Picogreen kit, Invitrogen) was also carried out for rationalizing all of the measurements in each well to the quantity of viable cells. The amounts of collagen and procollagen measured were rationalized to the amount of DNA present in each well.

[3] = tested on: type V collagen in the ECM; experiment: Assay of type V collagen in the ECM (anticollagen V antibody, europium TRF, Delfia) after NH4OH lysis of fibroblasts; assay type: cell-based, human; conditions: for Coll V (RFU) Mean: 48 hours, donor; for Versus control Mean (Coll V): control = 100.00
Description: A lysis step was carried out: 110 μl of an ammonium hydroxide solution at 20 mM for 10 minutes at room temperature and with stirring. The collagen V in the ECM was assayed directly on the ECM by using an anticollagen V antibody. A secondary antibody conjugated to europium was used with a detection reagent and the fluorescence was measured. (Delfia® kit—Perkin Elmer). The experiment was carried out according to the protocol described in example 1 with fibroblasts extracted from a biopsy from a donor.

[4] = tested on: type I collagen in the ECM; experiment: Assay of type I collagen in the ECM (anticollagen I antibody, europium TRF, Delfia) after NH4OH lysis of fibroblasts; assay type: cell-based, human; set-up: key to Coll I Mean: europium fluorescence normalized to measured dsDNA; conditions: for Coll I (RFU) Mean: 48 hours, donor; for Versus control Mean (Coll I): control = 100.00; for Coll I Mean / Ratio: Coll I/DNA Mean / Stat Mean (Coll I/DNA, control = 100.00): ECM
Description: After 48 hours of culture postconfluency, the culture medium was removed and discarded. A lysis step was carried out: 110 μl of an ammonium hydroxide solution at 20 mM for 10 minutes at room temperature and with stirring. The lysate was collected and analysed. The double-stranded DNA contained in the lysate was assayed by using the bisbenzimide method (Picogreen Kit, Invitrogen). The collagen in the ECM was assayed directly on the ECM by using an anticollagen I antibody. A secondary antibody conjugated to europium was used with a detection reagent and the fluorescence was measured. (Delfia® kit—Perkin Elmer). The fluorescence results were rationalized relative to the measured dsDNA rate. The experiment was carried out according to the protocol described in example 1 with fibroblasts extracted from a biopsy from a donor. […] The experiment was carried out according to the protocol described in example 1 with fibroblasts extracted from a biopsy of a donor.

[5] = tested on: extracellular procollagen; experiment: Procollagen ELISA (PIPc kit) on collected culture medium; assay type: cell-based, human
Description: The method described in example 1 was applied and the culture medium and lysis medium collected were analysed. On the collected culture medium, a procollagen assay was carried out (PIPc kit, TAKARA) by ELISA for determining the amount of extracellular procollagen (Table 4.1) The amounts of collagen and procollagen measured were rationalized to the amount of DNA present in each well. In experiment 6, procollagen was assayed in the culture medium collected in step b) in accordance with the method described in example 4.

normal human fibroblasts = experiment: Double-stranded DNA assay in the cell lysate (bisbenzimide, Picogreen) for quantity of viable cells; assay type: cell-based; set-up: unit not given here
Description: The lysate was collected and analysed. The double-stranded DNA contained in the lysate was assayed by using the bisbenzimide method (Picogreen Kit, Invitrogen). On the collected lysis medium, a procollagen assay (PIPc kit, TAKARA) by ELISA is carried out for determining the amount of intracellular procollagen (Table 4.2). A DNA assay (Picogreen kit, Invitrogen) was also carried out for rationalizing all of the measurements in each well to the quantity of viable cells.

[6] = ascorbic acid 0.1 μM, Example 4
[7] = ascorbic acid 100 μM, Example 5
[8] = ascorbic acid 100 μM, Example 4

## N [NH4OH, ammonium hydroxide]
[1]; NH4OH 200 μM
  Ratio: Coll/DNA % (20 mM = 100.00): 117.43%
[1]; NH4OH 2 mM
  Ratio: Coll/DNA % (20 mM = 100.00): 131.56%
[1]; NH4OH 20 mM
  Ratio: Coll/DNA % (20 mM = 100.00): 100.00%
[1]; NH4OH 200 mM
  Ratio: Coll/DNA % (20 mM = 100.00): 86.47%
[1]; NH4OH 2M
  Ratio: Coll/DNA % (20 mM = 100.00): 67.67%
[1]; repeat experiment, Table 3.2
  Ratio: Coll/DNA % (NH4OH = 100): 100%

## O=C1O[C@H]([C@@H](O)CO)C(O)=C1O [Ascorbic acid, ascorbic acid]
Collagen I
  Area/cells % (control = 100): 114.96%
  Area/cells Mean (collagen I fluorescence): 124238.13
[2]; Example 4
  procollagen concentration in the intracellular compartment: less than that observed with the untreated control
[2]; ascorbic acid 0.1 μM
  Procoll Mean (intracellular procollagen): 116 ng/mL
  Ratio: Procoll/DNA Mean: 0.37
  Stat Mean (Procoll/DNA, control = 100.00): 102.85
[2]; ascorbic acid 1 μM
  Procoll Mean (intracellular procollagen): 108 ng/mL
  Ratio: Procoll/DNA Mean: 0.36
  Stat Mean (Procoll/DNA, control = 100.00): 100.76
[2]; ascorbic acid 10 μM
  Procoll Mean (intracellular procollagen): 114 ng/mL
  Ratio: Procoll/DNA Mean: 0.41
  Stat Mean (Procoll/DNA, control = 100.00): 108.02
[2]; ascorbic acid 50 μM
  Procoll Mean (intracellular procollagen): 60 ng/mL
  Ratio: Procoll/DNA Mean: 0.22
  Stat Mean (Procoll/DNA, control = 100.00): 60.83
[2]; ascorbic acid 100 μM
  Procoll Mean (intracellular procollagen): 66 ng/mL
  Ratio: Procoll/DNA Mean: 0.23
  Stat Mean (Procoll/DNA, control = 100.00): 63.69
[3]; ascorbic acid 5 μM
  Ratio: Coll/DNA Mean (Coll V): 59.83
  Coll V (RFU) Mean: 12644 RFU
  Versus control Mean (Coll V): 117.16
[3]; ascorbic acid 10 μM
  Ratio: Coll/DNA Mean (Coll V): 58.76
  Coll V (RFU) Mean: 14127 RFU
  Versus control Mean (Coll V): 115.06
[3]; ascorbic acid 25 μM
  Ratio: Coll/DNA Mean (Coll V): 68.69
  Coll V (RFU) Mean: 16172 RFU
  Versus control Mean (Coll V): 134.49
[3]; ascorbic acid 50 μM
  Ratio: Coll/DNA Mean (Coll V): 68.86
  Coll V (RFU) Mean: 16230 RFU
  Versus control Mean (Coll V): 134.82
[3]; ascorbic acid 100 μM
  Ratio: Coll/DNA Mean (Coll V): 73.12
  Coll V (RFU) Mean: 17994 RFU
  Versus control Mean (Coll V): 143.17
[4]; 50 μM, Example 6
  Coll I (RFU) Mean: 169132 RFU
  Ratio: Coll/DNA Mean (Coll I): 340.49
  Versus control Mean (Coll I): 119.53
[4]; Example 4, 0.1 to 100 μM
  effect of stimulation on the content of collagen I in the ECM (dose dependence): dose-dependent up to 50 μM
[4]; Example 5, 5 to 100 μM tested
  optimum dose for efficacy, collagen I assay: 50 µM
[4]; Example 5, collagen I and V in the ECM
  stimulation of the synthesis of collagen I and V: induces stimulation of the synthesis of collagen I and V with a significant dose effect
[4]; Example 6, ascorbic acid at 50 μM, vegetable extract 1% (v/v)
  amount of collagen I in the ECM: significant increase
[4]; [6]
  Coll I Mean: 74156
  Ratio: Coll I/DNA Mean: 233.65
  Stat Mean (Coll I/DNA, control = 100.00): 105.33
[4]; ascorbic acid 1 μM, Example 4
  Coll I Mean: 74419
  Ratio: Coll I/DNA Mean: 246.46
  Stat Mean (Coll I/DNA, control = 100.00): 111.10
[4]; ascorbic acid 5 μM, Example 5
  Coll I (RFU) Mean: 59802 RFU
  Ratio: Coll/DNA Mean (Coll I): 273.40
  Versus control Mean (Coll I): 125.69
[4]; ascorbic acid 10 μM, Example 5
  Coll I (RFU) Mean: 59569 RFU
  Ratio: Coll/DNA Mean (Coll I): 239.53
  Versus control Mean (Coll I): 110.12
[4]; ascorbic acid 10 μM, Example 4
  Coll I Mean: 78694
  Ratio: Coll I/DNA Mean: 280.82
  Stat Mean (Coll I/DNA, control = 100.00): 126.59
[4]; ascorbic acid 25 μM, Example 5
  Coll I (RFU) Mean: 59088 RFU
  Ratio: Coll/DNA Mean (Coll I): 254.84
  Versus control Mean (Coll I): 117.16
[4]; ascorbic acid 50 μM, Example 5
  Coll I (RFU) Mean: 54454 RFU
  Ratio: Coll/DNA Mean (Coll I): 309.87
  Versus control Mean (Coll I): 130.66
[4]; ascorbic acid 50 μM, Example 4
  Coll I Mean: 79146
  Ratio: Coll I/DNA Mean: 284.31
  Stat Mean (Coll I/DNA, control = 100.00): 128.17
[4]; [7]
  Coll I (RFU) Mean: 50765 RFU
  Ratio: Coll/DNA Mean (Coll I): 249.31
  Versus control Mean (Coll I): 114.62
[4]; [8]
  Coll I Mean: 79796
  Ratio: Coll I/DNA Mean: 273.96
  Stat Mean (Coll I/DNA, control = 100.00): 123.50
[5]; 50 μM, Example 7
  Procoll (ng/ml) Mean: 1983 ng/mL
  Ratio: Procoll/DNA Mean: 4.01
[5]; 50 μM, Example 7, control = 100
  Versus control Mean (ProColl/DNA): 171.17
[5]; ascorbic acid 0.1 μM
  Procoll Mean (extracellular procollagen): 1987 ng/mL
  Ratio: Procoll/DNA Mean: 6.26
  Stat Mean (Procoll/DNA, control = 100.00): 100.75
[5]; ascorbic acid 1 μM
  Procoll Mean (extracellular procollagen): 1983 ng/mL
  Ratio: Procoll/DNA Mean: 6.57
  Stat Mean (Procoll/DNA, control = 100.00): 105.74
[5]; ascorbic acid 10 μM
  Procoll Mean (extracellular procollagen): 2756 ng/mL
  Ratio: Procoll/DNA Mean: 9.83
  Stat Mean (Procoll/DNA, control = 100.00): 158.16
[5]; ascorbic acid 50 μM
  Procoll Mean (extracellular procollagen): 2852 ng/mL
  Ratio: Procoll/DNA Mean: 10.25
  Stat Mean (Procoll/DNA, control = 100.00): 164.89
[5]; ascorbic acid 100 μM
  Procoll Mean (extracellular procollagen): 2845 ng/mL
  Ratio: Procoll/DNA Mean: 9.78
  Stat Mean (Procoll/DNA, control = 100.00): 157.30
Normal human fibroblasts; 50 μM, Example 6 and 7
  DNA Mean: 497.4 and 497.3
Normal human fibroblasts; [6]
  DNA Mean: 318
Normal human fibroblasts; ascorbic acid 1 μM, Example 4
  DNA Mean: 303
Normal human fibroblasts; ascorbic acid 5 μM, Table 5.3
  DNA Mean: 220
Normal human fibroblasts; ascorbic acid 5 μM, Table 5.4
  DNA Mean: 212
Normal human fibroblasts; ascorbic acid 10 μM, Example 4
  DNA Mean: 281
Normal human fibroblasts; ascorbic acid 10 μM, Table 5.3
  DNA Mean: 249
Normal human fibroblasts; ascorbic acid 10 μM, Table 5.4
  DNA Mean: 241
Normal human fibroblasts; ascorbic acid 25 μM, Table 5.3
  DNA Mean: 232
Normal human fibroblasts; ascorbic acid 25 μM, Table 5.4
  DNA Mean: 236
Normal human fibroblasts; ascorbic acid 50 μM, Example 4
  DNA Mean: 279
Normal human fibroblasts; ascorbic acid 50 μM, Table 5.3
  DNA Mean: 180
Normal human fibroblasts; ascorbic acid 50 μM, Table 5.4
  DNA Mean: 236
Normal human fibroblasts; [8]
  DNA Mean: 291
Normal human fibroblasts; ascorbic acid 100 μM, Table 5.3
  DNA Mean: 204
Normal human fibroblasts; ascorbic acid 100 μM, Table 5.4
  DNA Mean: 246
